Experimental data: US12637465B2, “Pharmaceutically acceptable salts of sepiapterin” (PTC Therapeutics MP, Inc., priority 2018, dated 2026)

Legend:
Assay type in all cases: physicochemical
[1] = Form change/disproportionation of residual solids by XRPD after suspension in water or Medisca Oral Mix; details: for Form change (residual solids, XRPD): RT, listed as nicotinate salt and/or co-crystal
Description: The kinetic solubility was evaluated for nicotinate, phosphate, L-tartrate, and fumarate salts and/or co-crystals of sepiapterin in water and […] Oral Mix. X-ray powder diffraction (XRPD) was performed for the residual solids to identify form change/disproportionation. Solids were suspended into the media with target conc. of 7 mg/mL (calculated by freebase). […] Oral Mix after 1 hour. […] Oral Mix.

[2] = Solid form stability study of salts and/or co-crystals at 25° C./60% RH and 40° C./75% RH
Description: The stability of the prepared salts and/or co-crystals was analyzed after 1 and 2 weeks at 25° C. and 60% relative humidity and 40° C. and 75% relative humidity. […] None of the phosphate, tartrate, or nicotinate salts and/or co-crystals underwent a form change during the stability testing, and each of them retained greater than 97% purity over the two weeks of the study. In fact, both the tartrate and nicotinate both retained greater than 99% purity.

[3] = Kinetic solubility in water and Medisca Oral Mix (HPLC solubility, purity and pH of supernatant); details: RT; for Purity (area %) of supernatant: for reference only; for Purity (area %) of supernatant / pH: listed as nicotinate salt and/or co-crystal
Description: The kinetic solubility was evaluated for nicotinate, phosphate, L-tartrate, and fumarate salts and/or co-crystals of sepiapterin in water and […] Oral Mix. X-ray powder diffraction (XRPD) was performed for the residual solids to identify form change/disproportionation. Solids were suspended into the media with target conc. of 7 mg/mL (calculated by freebase).

## C[C@H](O)C(=O)C1=Nc2c(nc(N)[nH]c2=O)NC1 [Nicotinate, sepiapterin]
[1]; Medisca Oral Mix, 1 hr
  Form change (residual solids, XRPD): Yes
[1]; Medisca Oral Mix, 4 hr
  Form change (residual solids, XRPD): Yes
[1]; Medisca Oral Mix, 24 hr
  Form change (residual solids, XRPD): Yes
[1]; Medisca Oral Mix, after 1 hour
  Form of the residual solids in Medisca Oral Mix: converted to freebase
[1]; Water, 1 hr
  Form change (residual solids, XRPD): Yes
[1]; Water, 4 hr
  Form change (residual solids, XRPD): Yes
[1]; Water, 24 hr
  Form change (residual solids, XRPD): Yes
[1]; water, after 1 hour
  Form of the residual solids in water: converted to freebase
[2]
  Stability compared with the other salts and/or co-crystals tested: noticeably more stable than the others
[2]; 1 and 2 weeks, 25° C./60% RH and 40° C./75% RH
  Underwent a form change during the stability testing: None
[2]; 1 week, 25° C./60% RH
  Form change: No
  Purity (Area %): 97.43 Area %
  Purity vs. initial (%): 100.3%
[2]; 1 week, 40° C./75% RH
  Form change: No
  Purity (Area %): 97.30 Area %
  Purity vs. initial (%): 100.2%
[2]; 2 weeks, 25° C./60% RH
  Form change: No
  Purity (Area %): 97.45 Area %
  Purity vs. initial (%): 100.3%
[2]; 2 weeks, 40° C./75% RH
  Form change: No
  Purity (Area %): 97.41 Area %
  Purity vs. initial (%): 100.3%
[2]; Initial
  Purity (Area %): 97.16 Area %
[3]; Medisca Oral Mix, 1 hr
  Observation: Turbid
  Purity (area %) of supernatant: 99.76 area %
  pH: 3.1
[3]; Medisca Oral Mix, 4 hr
  Observation: Turbid
  Purity (area %) of supernatant: 99.60 area %
  pH: 3.1
[3]; Medisca Oral Mix, 24 hr
  Observation: Turbid
  Purity (area %) of supernatant: 97.00 area %
  pH: 3.1
[3]; Water, 1 hr
  Observation: Turbid
  Purity (area %) of supernatant: 98.97 area %
  pH: 2.1
[3]; Water, 4 hr
  Observation: Turbid
  Purity (area %) of supernatant: 99.04 area %
  pH: 2.1
[3]; Water, 24 hr
  Observation: Turbid
  Purity (area %) of supernatant: 96.54 area %
  pH: 2.1

## C[C@H](O)C(=O)C1=Nc2c(nc(N)[nH]c2=O)NC1 [Gentisate, sepiapterin]
[2]; 1 week, 25° C./60% RH
  Purity (Area %): 97.66 Area %
  Purity vs. initial (%): 103.5%
[2]; 1 week, 40° C./75% RH
  Purity (Area %): 96.89 Area %
  Purity vs. initial (%): 102.7%
[2]; 2 weeks, 25° C./60% RH
  Purity (Area %): 97.00 Area %
  Purity vs. initial (%): 102.8%
[2]; 2 weeks, 40° C./75% RH
  Purity (Area %): 93.37 Area %
  Purity vs. initial (%): 102.1%
[2]; Initial
  Purity (Area %): 94.35 Area %

## C[C@H](O)C(=O)C1=Nc2c(nc(N)[nH]c2=O)NC1 [Benzenesulfonate, sepiapterin]
[2]; 1 week, 25° C./60% RH
  Purity (Area %): 90.68 Area %
  Purity vs. initial (%): 100.5%
[2]; 1 week, 40° C./75% RH
  Purity (Area %): 82.63 Area %
  Purity vs. initial (%): 91.6%
[2]; 2 weeks, 25° C./60% RH
  Purity (Area %): 86.37 Area %
  Purity vs. initial (%): 95.8%
[2]; 2 weeks, 40° C./75% RH
  Purity (Area %): 82.65 Area %
  Purity vs. initial (%): 91.6%
[2]; Initial
  Purity (Area %): 90.20 Area %

## C[C@H](O)C(=O)C1=Nc2c(nc(N)[nH]c2=O)NC1 [Methanesulfonate, sepiapterin]
[2]; 1 week, 25° C./60% RH
  Form change: No
  Purity (Area %): 95.26 Area %
  Purity vs. initial (%): 104.5%
[2]; 1 week, 40° C./75% RH
  Form change: No
  Purity (Area %): 88.68 Area %
  Purity vs. initial (%): 97.3%
[2]; 2 weeks, 25° C./60% RH
  Form change: No
  Purity (Area %): 91.95 Area %
  Purity vs. initial (%): 100.9%
[2]; 2 weeks, 40° C./75% RH
  Form change: No
  Purity (Area %): 85.97 Area %
  Purity vs. initial (%): 94.3%
[2]; Initial
  Purity (Area %): 91.14 Area %

## C[C@H](O)C(=O)C1=Nc2c(nc(N)[nH]c2=O)NC1 [Malonate, sepiapterin]
[2]; 1 week, 25° C./60% RH
  Purity (Area %): 99.39 Area %
  Purity vs. initial (%): 99.9%
[2]; 1 week, 40° C./75% RH
  Purity (Area %): 99.14 Area %
  Purity vs. initial (%): 99.7%
[2]; 2 weeks, 25° C./60% RH
  Purity (Area %): 99.23 Area %
  Purity vs. initial (%): 99.8%
[2]; 2 weeks, 40° C./75% RH
  Purity (Area %): 97.81 Area %
  Purity vs. initial (%): 98.3%
[2]; Initial
  Purity (Area %): 99.45 Area %
